Experimental data from PubChem BioAssay AID623931 (Vanderbilt Specialized Chemistry Center, 2012).

What was measured:
PubChem AID 623931 = settings: Ricerca radioligand binding panel, % inhibition, at 10 µM, stronger effect = higher value
[1] = target: 5-hydroxytryptamine receptor 2B (Homo sapiens) (UniProt P41595); assay: PubChem AID 623931; settings: Ricerca radioligand binding panel, % inhibition; at 10 µM; stronger effect = higher value

SMILES: COc1ccc(C#Cc2ccc(C(=O)N3CCC[C@@H](CO)C3)cc2)cc1
- inhibition (PubChem AID 623931; GABA-A muscimol site binding): 21%
- inhibition (PubChem AID 623931; K-ATP channel binding): 21%
- inhibition (PubChem AID 623931; adenosine A3 receptor binding): 44%
- inhibition (PubChem AID 623931; dopamine D3 receptor binding): 19%
- inhibition (PubChem AID 623931; dopamine transporter DAT binding): 88%
- inhibition (PubChem AID 623931; hERG potassium channel binding): 13%
- inhibition (PubChem AID 623931; imidazoline I2 binding): 35%
- inhibition (PubChem AID 623931; norepinephrine transporter NET binding): 28%
- inhibition (PubChem AID 623931; prostanoid EP4 receptor binding): 45%
- inhibition (PubChem AID 623931; purinergic P2Y binding): 23%
- inhibition (PubChem AID 623931; serotonin transporter SERT binding): 50%
- inhibition (PubChem AID 623931; sigma 1 receptor binding): 37%
- inhibition [1]: 71%
